What was measured:
adenosine A1 receptor = target: T1, adenosine A1 receptor (Rattus norvegicus, UniProt P25099); experiment: Adenosine Receptor Binding, A1 Receptor Affinity (RBA1), [3H]-CHA; settings: rat brain membranes, 1.0 nM [3H]-CHA
T1 construct: Whole brain minus cerebellum and brainstem from male Long Evans rats; from tissue; host or cells: whole brain minus cerebellum and brainstem, male Long Evans rats, membranes
T1 sequence (P25099 1-326): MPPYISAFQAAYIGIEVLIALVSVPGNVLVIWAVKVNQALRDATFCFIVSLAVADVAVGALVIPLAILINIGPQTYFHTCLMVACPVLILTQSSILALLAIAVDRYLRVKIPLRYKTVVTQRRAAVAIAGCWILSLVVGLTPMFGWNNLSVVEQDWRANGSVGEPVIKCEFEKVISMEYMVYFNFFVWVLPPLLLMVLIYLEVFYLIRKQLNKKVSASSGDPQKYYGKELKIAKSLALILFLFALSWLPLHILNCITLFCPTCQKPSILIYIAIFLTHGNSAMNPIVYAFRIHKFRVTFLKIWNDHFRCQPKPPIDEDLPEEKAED
Protocol: Whole brain minus cerebellum and brainstem from male Long Evans rats (150-200 g) was homogenized in 30 volumes of ice-cold 0.05M Tris-HCl buffer pH 7.7 using a Brinkman Polytron PT-10, (setting number 6 for 20 seconds) and centrifuged for ten minutes at 20,000 × g (Sorvall RC-2), 4° C. The supernatant was discarded, and the pellet was resuspended and centrifuged as before. The pellet was resuspended in 20 ml Tris-HCl buffer containing two International Units/ml of adenosine deaminase (Sigma type III from calf intestinal mucosa), incubated at 37° C. for 30 minutes, then subsequently at 0° C. for ten minutes. […]
Tissue homogenate (10 mg/ml) was incubated in 0.05M Tris-HCl buffer pH 7.7 containing 1.0 nM [^3 H]-N^6 -cyclohexyladenosine (^3 H]-CHA) with or without test agents in triplicate for one hour at 25° C. […] The radio-labeled ligand retained on the filter was measured by liquid scintillation spectrophotometry after shaking the filters for one hour or longer on a mechanical shaker in 10 ml of Beckman Ready-Solv HP scintillation cocktail.
Nonspecific binding was defined as the binding which occurred in the presence of 1 mM theophylline. […] The Scatchard plot was calculated by linear regression of the line obtained by plotting the amount of radioligand bound (pmoles/gram of tissue) versus [formula] […] The maximal number of binding sites (Bmax) was calculated from the Scatchard plot.

adenosine A2 receptor = target: T2, adenosine A2 receptor (Rattus norvegicus, UniProt P30543); experiment: Adenosine Receptor Binding, A2 Receptor Affinity (RBA2), [3H]NECA, rat striatal membranes; settings: 4 nM [3H]NECA, 50 nM N6-cyclopentyladenosine
T2 construct: 5 mg original tissue weight of rat weight of rat striatal membranes; tissue Pel-Freez (Rogers, Arkansas); host or cells: rat brain striatum membranes (Sprague-Dawley; Long-Evans hooded rats gave essentially identical results)
Protocol: Brains from 200-500 g mixed sex Sprague-Dawley rats were purchased from Pel-Freez (Rogers, Arkansas). Fresh brains from male Long-Evans hooded rats (Blue Spruce Farms, Altamont, NY) gave essentially identical results. Brains were thawed and then kept on ice while the striata were dissected out. Striata were disrupted in 10 vol of ice-cold 50 mM Tris.HCl (pH 7.7 at 25° C., pH 8.26 at 5° C.) (Tris) for 30 seconds in a Polytron PT-10 (Brinkmann) at setting 5. The suspension was centrifuged at 50,000 xg for ten minutes, the supernatant discarded, the pellet resuspended in 10 vol ice-cold Tris as above, recentrifuged, resuspended at 1 g/5 ml, and stored in plastic vials at -70° C. (stable for at least six months). When needed, tissue was thawed at room temperature, disrupted in a Polytron, and kept on ice until used. […]
Incubations were terminated by filtration through 2.4 cm GF/B filters under reduced pressure. […] Filters were put in scintillation vials, 8 ml of Formula 947 scintillation fluid added, and the vials left overnight, shaken, and counted in a liquid scintillation counter at 40% efficiency.
Nonspecific binding was defined as binding in the presence of 100 μM N^6 -cyclopentyladenosine, and specific binding was defined as total binding minus nonspecific binding. The IC50 was calculated by weighted nonlinear least squares curve-fitting to the mass-action equation. […]

T2 sequence (P30543 whole entry): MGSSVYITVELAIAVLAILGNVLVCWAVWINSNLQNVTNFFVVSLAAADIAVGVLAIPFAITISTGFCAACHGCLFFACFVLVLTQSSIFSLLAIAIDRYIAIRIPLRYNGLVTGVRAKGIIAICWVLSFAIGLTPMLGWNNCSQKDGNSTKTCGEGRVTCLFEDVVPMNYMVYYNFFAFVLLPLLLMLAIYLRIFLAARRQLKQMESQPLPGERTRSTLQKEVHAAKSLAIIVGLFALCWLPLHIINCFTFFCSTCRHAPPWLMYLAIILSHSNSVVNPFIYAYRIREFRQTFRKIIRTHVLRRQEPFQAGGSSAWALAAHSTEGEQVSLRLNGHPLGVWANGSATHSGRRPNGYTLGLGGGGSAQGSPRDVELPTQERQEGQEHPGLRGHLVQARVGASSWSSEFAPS

## C[C@H](O)CNc1ncnc2c1ncn2[C@@H]1O[C@H](CO)[C@@H](O)[C@H]1O [N^6-[(S)-2-hydroxypropyl]adenosine, N^6-[(S)-2-Hydroxypropyl]adenosine]
Adenosine A1 receptor
  IC50: 0.006 µM
Adenosine A2 receptor
  IC50: 14 µM
